# In the supplement of paper PMC7021759:
# ± gives the standard deviation of the averaged measurements.
# Tested on: SK-N-MM (SKNMM-MYCN, doxycycline-inducible MYCN)
# Assay: area under dose-response curve (CellTiter-Glo viability normalised to plate controls) (AUC (arbitrary units)); higher = more loss of viability; extreme values may be limits of the assay
# In short: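 In 96-well plates, SK-N-MM cells with doxycycline-inducible MYCN (1250 cells/100 μL) were given medium with or without doxycycline about 24 h after plating. Compound dilution series of 10 points at 1:3 were added two days later and again on day 4, and CellTiter-Glo luminescence was recorded 3 or 8 days after drugging. The area under the dose-response curve was derived from log2 signals normalised to the positive and negative controls on each plate.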
# [1] = MYCN induction (doxycycline): +doxycycline (MYCN induced), time after drugging: 3 days
# [2] = MYCN induction (doxycycline): +doxycycline (MYCN induced), time after drugging: 8 days
# [3] = MYCN induction (doxycycline): no doxycycline (MYCN not induced), time after drugging: 3 days
# [4] = MYCN induction (doxycycline): no doxycycline (MYCN not induced), time after drugging: 8 days
Compound,area under dose-response curve [1],area under dose-response curve [2],area under dose-response curve [3],area under dose-response curve [4]
S=c1[nH]cnc2nc[nH]c12 [MERCAPTOPURINE],8.11,21.7,12.1,13.1
CN(Cc1cnc2nc(N)nc(N)c2n1)c1ccc(C(=O)N[C@@H](CCC(=O)O)C(=O)O)cc1 [METHOTREXATE],3.6,18.6,0.0478,
CN(C)c1ccc2nc3ccc(=[N+](C)C)cc-3sc2c1 [METHYLENE BLUE],48.8,152,45.6,75.9
Cc1c(CN2CCC(Nc3ncnc4sc(CC(F)(F)F)cc34)CC2)ccc2c1cc(C#N)n2Cc1cn[nH]c1 [MI-503],131,177,,169
CO[C@@H]1[C@H](N(C)C(=O)c2ccccc2)C[C@H]2O[C@]1(C)n1c3ccccc3c3c4c(c5c6ccccc6n2c5c31)C(=O)NC4 [MIDOSTAURIN],59.7,122,65.6,127
CCC(=O)OCN1C(=O)C=CC1=O [MIRA-1],,,,39
CO[C@@]12[C@H](COC(N)=O)C3=C(C(=O)C(C)=C(N)C3=O)N1C[C@@H]1N[C@@H]12 [MITOMYCIN C],11.1,100,4.39,78.3
Clc1ccc(C(c2ccccc2Cl)C(Cl)Cl)cc1 (configuration not stated) [MITOTANE],0,0,0,0
O=C1c2c(O)ccc(O)c2C(=O)c2c(NCCNCCO)ccc(NCCNCCO)c21 [MITOXANTHRONE],166,325,119,258
C=CCn1c(=O)c2cnc(Nc3ccc(N4CCN(C)CC4)cc3)nc2n1-c1cccc(C(C)(C)O)n1 [MK-1775],105 ± 20,159 ± 26,42.5 ± 14,98.1 ± 4.8
NC1(c2ccc(-c3nc4ccn5c(=O)[nH]nc5c4cc3-c3ccccc3)cc2)CCC1 [MK-2206],,0,81.6,149
CN(C)CCCNC(=O)c1ccc(-c2cc(O)c3ncccc3c2)cc1 [ML324],16.5,109,4.85,68.6
CC1(C)CNc2cc(NC(=O)c3cccnc3NCc3ccncc3)ccc21 [MOTESANIB DIPHOSPHATE],0,0,5.62,0
COc1c(C)c2c(c(O)c1C/C=C(\C)CCC(=O)OCCN1CCOCC1)C(=O)OC2 [MYCOPHENOLATE MOFETIL],43.8,115,25.9,51.4
CC1(C)CCC(c2ccc(Cl)cc2)=C(CN2CCN(c3ccc(C(=O)NS(=O)(=O)c4ccc(N[C@H](CCN5CCOCC5)CSc5ccccc5)c(S(=O)(=O)C(F)(F)F)c4)cc3)CC2)C1 [NAVITOCLAX],8.7,3.92,0,0.362
CCOc1cc2ncc(C#N)c(Nc3ccc(OCc4ccccn4)c(Cl)c3)c2cc1NC(=O)/C=C/CN(C)C [NERATINIB],106,154,98.3,151
CC1CS(=O)(=O)CCN1/N=C/c1ccc([N+](=O)[O-])o1 (configuration not stated) [NIFURTIMOX],3.58,0,0,0.144
Cc1cn(-c2cc(NC(=O)c3ccc(C)c(Nc4nccc(-c5cccnc5)n4)c3)cc(C(F)(F)F)c2)cn1 [NILOTINIB],2.25,2.7,2.22,3.03
Cc1ncc(CNC(=O)N(CCCl)N=O)c(N)n1 [NIMUSTINE],0,0,0,0
COc1ccc2c(c1OC)C(=O)O[C@@H]2[C@H]1c2c(cc3c(c2OC)OCO3)CCN1C [NOSCAPINE],0.556,19.8,0,
COC1=CC(c2cc3ccccc3[nH]2)=N/C1=C\c1[nH]c(C)cc1C [OBATOCLAX],195,255,178,229
C=C1[C@@H](O)[C@@H]2O[C@]3(CC[C@H](/C=C/[C@@H](C)[C@@H]4CC(C)=C[C@@]5(O[C@H](C[C@@](C)(O)C(=O)O)CC[C@H]5O)O4)O3)CC[C@H]2O[C@@H]1[C@@H](O)C[C@H](C)[C@H]1O[C@@]2(CCCCO2)CC[C@H]1C [OKADAIC ACID],204,277,167,266
O=C(c1cc(Cc2n[nH]c(=O)c3ccccc23)ccc1F)N1CCN(C(=O)C2CC2)CC1 [OLAPARIB],9.23,23.6,,0
COc1ncc(-c2ccc3nccc(-c4ccnnc4)c3c2)cc1NS(=O)(=O)c1ccc(F)cc1F [OMIPALISIB],105,183,86.2,160
C[C@@H]1O[C@@H](O[C@H]2C[C@@H](O)[C@]3(CO)[C@H]4[C@H](O)C[C@]5(C)[C@@H](C6=CC(=O)OC6)CC[C@]5(O)[C@@H]4CC[C@]3(O)C2)[C@H](O)[C@H](O)[C@H]1O [OUABAIN],178,280,173,275
C1=N/C2=N/c3ccc(OCCN4CCCC4)c(c3)COC/C=C/COCc3cccc(c3)C(=C1)N2 [PACRITINIB],170,176,165,198
CC(=O)c1c(C)c2cnc(Nc3ccc(N4CCNCC4)cn3)nc2n(C2CCCC2)c1=O [PALBOCICLIB],0,78.6,0,65.5
Cc1[nH]c2ccccc2c1CCNCc1ccc(/C=C/C(=O)NO)cc1 [PANOBINOSTAT],171 ± 12,306 ± 5.3,114 ± 27,287 ± 4.4
Cc1ccc(Nc2nccc(N(C)c3ccc4c(C)n(C)nc4c3)n2)cc1S(N)(=O)=O [PAZOPANIB],21.1,40.1,18.1,29.2
Nc1nc2[nH]cc(CCc3ccc(C(=O)N[C@@H](CCC(=O)O)C(=O)O)cc3)c2c(=O)[nH]1 [PEMETREXED],6.04,112,0,58.3
